Measured values published in publication PMC6941952, “A homogeneous bioluminescent immunoassay to probe cellular signaling pathway regulation” (Communications Biology, 2020).

Tested on: phospho-IκBα (Ser32)
Test: NanoBiT cell-based immunoassay, phosphorylated IκBα in MCF-7 cells
Design: species or system human
Conditions: for Raw data / Subtract reagent background: TNF
Experimental: Prior to NanoBiT Cell-Based Immunoassay, 50,000 cells were seeded in 160 µl of complete growth media per well of a 96-well plate and incubated overnight. The cells were checked under microscope and it was determined that 50,000 cells per well in 96-well plate is under 90% confluency for all cells tested. If necessary, the cell culture media were replaced with serum-free media after the cells were stably adherent on the plate and incubated overnight. To treat cells with activators or inhibitors, medium was changed to 30 µl of medium containing inhibitors. If activation of a specific pathway is needed, the cells were stimulated with 10 µl of medium containing activators. To lyse the cells, 10 µl of lysis buffer containing 0.1% digitonin diluted in 1X immunoassay buffer with protease and phosphatase inhibitors was added and the plates were mixed vigorously for 20 min. Then, 50 µl of an antibody mix containing two primary antibodies against the target protein and NanoBiT detecting antibodies (0.3 µl each per well), diluted in 1X immunoassay buffer was added to the lysates. The plates were incubated at 23 °C for 90 min, followed by the addition of 25 µl of Nano-Glo® reagent consisting of Nano-Glo® Luciferase Assay Substrate mixed with 1X immunoassay buffer. Luminescence was measured using a plate-reading luminometer.
In all, 50,000 MCF-7 cells were seeded in 160 µl complete growth medium per well of a 96-well plate and incubated overnight. Half of the cells were treated with 50 ng per ml TNFα and half with vehicle. Cells were lysed as described above and a mixture of NanoBiT secondary antibodies with primary antibodies at the matrix concentrations described in Fig. 2a were added. After 90 min incubation, the Nano-Glo® reagent was added to the reactions as described above and luminescence was measured using a plate-reading luminometer.
Single dose or dose response inhibitor treatments were performed prior to activation of the pathways as follows. For IκBα, the cells were treated in 30 µl medium with IKK16 or MG132 for 60 min before the addition of 10 µl of DMEM containing appropriate concentration of TNFα. To measure phosphorylation of AKT or STAT3, the corresponding NanoBiT immunoassays were developed with MCF-7 or A431 cells, respectively, according the same scheme used to develop the IκBα assay using the primary antibodies for AKT and STAT3 described in the reagents section. For the AKT assay, MCF-7 cells were incubated overnight in phenol-red free DMEM medium (Gibco #21063-029) without serum. Treatment with LY294002 was performed in 30 µl medium and cells were incubated for 60 min before the addition of 1 µM Insulin. To measure STAT3 phosphorylation, A431 cells were incubated overnight in DMEM medium without serum. […] After addition of the stimulators, the cells were incubated for additional times as follows. IκBα phosphorylation and degradation analyses required both time courses and single time points as described in figures. […] The NanoBiT immunoassay protocol was followed as described above.
All 96-well assay plates were read using a GloMax® 96 Microplate Luminometer from Promega. The instrument was set to 0.5 s integration time. In order to obtain net change of signal, the reagent background values (signal from the well containing all reagent except primary antibodies) were subtracted from the sample values. To plot and analyze the data, Microsoft Excel and GraphPad Prism® Software were used. IC50 values were determined by using a nonlinear regression fit to a sigmoidal dose response (variable slope).

[1] = plate #3, IkB Ab #3 75 ng/ml, P-IkB Ab #2 75 ng/ml
[2] = plate #3, IkB Ab #3 75 ng/ml, P-IkB Ab #2 150 ng/ml
[3] = plate #3, IkB Ab #3 75 ng/ml, P-IkB Ab #2 300 ng/ml
[4] = plate #3, IkB Ab #3 75 ng/ml, P-IkB Ab #2 600 ng/ml
[5] = plate #3, IkB Ab #3 75 ng/ml, P-IkB Ab #2 1200 ng/ml
[6] = plate #3, IkB Ab #3 150 ng/ml, P-IkB Ab #2 75 ng/ml
[7] = plate #3, IkB Ab #3 150 ng/ml, P-IkB Ab #2 150 ng/ml
[8] = plate #3, IkB Ab #3 150 ng/ml, P-IkB Ab #2 300 ng/ml
[9] = plate #3, IkB Ab #3 150 ng/ml, P-IkB Ab #2 600 ng/ml
[10] = plate #3, IkB Ab #3 150 ng/ml, P-IkB Ab #2 1200 ng/ml
[11] = plate #3, IkB Ab #3 300 ng/ml, P-IkB Ab #2 75 ng/ml
[12] = plate #3, IkB Ab #3 300 ng/ml, P-IkB Ab #2 150 ng/ml
[13] = plate #3, IkB Ab #3 300 ng/ml, P-IkB Ab #2 300 ng/ml
[14] = plate #3, IkB Ab #3 300 ng/ml, P-IkB Ab #2 600 ng/ml
[15] = plate #3, IkB Ab #3 300 ng/ml, P-IkB Ab #2 1200 ng/ml
[16] = plate #3, IkB Ab #3 600 ng/ml, P-IkB Ab #2 75 ng/ml
[17] = plate #3, IkB Ab #3 600 ng/ml, P-IkB Ab #2 150 ng/ml
[18] = plate #3, IkB Ab #3 600 ng/ml, P-IkB Ab #2 300 ng/ml
[19] = plate #3, IkB Ab #3 600 ng/ml, P-IkB Ab #2 600 ng/ml
[20] = plate #3, IkB Ab #3 600 ng/ml, P-IkB Ab #2 1200 ng/ml
[21] = plate #3, IkB Ab #3 1200 ng/ml, P-IkB Ab #2 75 ng/ml
[22] = plate #3, IkB Ab #3 1200 ng/ml, P-IkB Ab #2 150 ng/ml
[23] = plate #3, IkB Ab #3 1200 ng/ml, P-IkB Ab #2 300 ng/ml
[24] = plate #3, IkB Ab #3 1200 ng/ml, P-IkB Ab #2 600 ng/ml
[25] = plate #3, IkB Ab #3 1200 ng/ml, P-IkB Ab #2 1200 ng/ml

In the case of TNFα, the “Fold change (TNF-treated /Non-treated)” value (plate #2, IkB Ab #2 (Mouse) 600 ng/ml, P-IkB Ab #1 (Rabbit) 1200 ng/ml, listed as TNF) is reported as 0.8, the “Fold change (TNF-treated /Non-treated)” value (plate #2, IkB Ab #2 (Mouse) 1200 ng/ml, P-IkB Ab #1 (Rabbit) 75 ng/ml) is reported as 1.511 and the “Fold change (TNF-treated /Non-treated)” value (plate #2, IkB Ab #2 (Mouse) 1200 ng/ml, P-IkB Ab #1 (Rabbit) 75 ng/ml, listed as TNF) is reported as 1.5. The “Fold change (TNF-treated /Non-treated)” value (plate #2, IkB Ab #2 (Mouse) 1200 ng/ml, P-IkB Ab #1 (Rabbit) 150 ng/ml) was 2.468, the “Fold change (TNF-treated /Non-treated)” value (plate #2, IkB Ab #2 (Mouse) 1200 ng/ml, P-IkB Ab #1 (Rabbit) 150 ng/ml, listed as TNF) was 2.5 and the “Fold change (TNF-treated /Non-treated)” value (plate #2, IkB Ab #2 (Mouse) 1200 ng/ml, P-IkB Ab #1 (Rabbit) 300 ng/ml) was 2.168. For the same substance, the “Fold change (TNF-treated /Non-treated)” value (plate #2, IkB Ab #2 (Mouse) 1200 ng/ml, P-IkB Ab #1 (Rabbit) 300 ng/ml, listed as TNF) was 2.2, the “Fold change (TNF-treated /Non-treated)” value (plate #2, IkB Ab #2 (Mouse) 1200 ng/ml, P-IkB Ab #1 (Rabbit) 600 ng/ml) was 2.1086 and the “Fold change (TNF-treated /Non-treated)” value (plate #2, IkB Ab #2 (Mouse) 1200 ng/ml, P-IkB Ab #1 (Rabbit) 600 ng/ml, listed as TNF) was 2.1. The “Fold change (TNF-treated /Non-treated)” value (plate #2, IkB Ab #2 (Mouse) 1200 ng/ml, P-IkB Ab #1 (Rabbit) 1200 ng/ml) was 1.784, the “Fold change (TNF-treated /Non-treated)” value (plate #2, IkB Ab #2 (Mouse) 1200 ng/ml, P-IkB Ab #1 (Rabbit) 1200 ng/ml, listed as TNF) was 1.8 and the Raw data [1] was 20510. For the same substance, the Subtract reagent background [1] was 5320, the Raw data [2] was 20430 and the Subtract reagent background [2] was 5240. It also gave a Raw data [3] of 19120, a Subtract reagent background [3] of 3930 and a Raw data [4] of 17590. For the same substance, the Subtract reagent background [4] was 2400, the Raw data [5] was 16090 and the Subtract reagent background [5] was 900. It also gave a Raw data [6] of 27550, a Subtract reagent background [6] of 12360 and a Raw data [7] of 26450. It also gave a Subtract reagent background [7] of 11260, a Raw data [8] of 24490 and a Subtract reagent background [8] of 9300. It also gave a Raw data [9] of 21590, a Subtract reagent background [9] of 6400 and a Raw data [10] of 19970. The Subtract reagent background [10] was 4780, the Raw data [11] was 26220 and the Subtract reagent background [11] was 11030. For the same substance, the Raw data [12] was 24040, the Subtract reagent background [12] was 8850 and the Raw data [13] was 23970. It also gave a Subtract reagent background [13] of 8780, a Raw data [14] of 20830 and a Subtract reagent background [14] of 5640. For the same substance, the Raw data [15] was 19500, the Subtract reagent background [15] was 4310 and the Raw data [16] was 24590. For the same substance, the Subtract reagent background [16] was 9400, the Raw data [17] was 22810 and the Subtract reagent background [17] was 7620. For the same substance, the Raw data [18] was 23190, the Subtract reagent background [18] was 8000 and the Raw data [19] was 21540. For the same substance, the Subtract reagent background [19] was 6350, the Raw data [20] was 20460 and the Subtract reagent background [20] was 5270. For the same substance, the Raw data [21] was 23630, the Subtract reagent background [21] was 8440 and the Raw data [22] was 23620. It also gave a Subtract reagent background [22] of 8430, a Raw data [23] of 22930 and a Subtract reagent background [23] of 7740. The Raw data [24] was 22240, the Subtract reagent background [24] was 7050 and the Raw data [25] was 21740. The Subtract reagent background [25] was 6550, the “Fold change (TNF-treated /Non-treated)” value (plate #3, IkB Ab #3 (Rabbit) 150 ng/ml, P-IkB Ab #2 (Mouse) 75 ng/ml) was 3.572 and the “Fold change (TNF-treated /Non-treated)” value (plate #3, IkB Ab #3 (Rabbit) 150 ng/ml, P-IkB Ab #2 (Mouse) 150 ng/ml) was 2.066. For the same substance, the “Fold change (TNF-treated /Non-treated)” value (plate #3, IkB Ab #3 (Rabbit) 150 ng/ml, P-IkB Ab #2 (Mouse) 300 ng/ml) was 1.553, the “Fold change (TNF-treated /Non-treated)” value (plate #3, IkB Ab #3 (Rabbit) 150 ng/ml, P-IkB Ab #2 (Mouse) 600 ng/ml) was 1.339 and the “Fold change (TNF-treated /Non-treated)” value (plate #3, IkB Ab #3 (Rabbit) 150 ng/ml, P-IkB Ab #2 (Mouse) 1200 ng/ml) was 0.8968. The “Fold change (TNF-treated /Non-treated)” value (plate #3, IkB Ab #3 (Rabbit) 300 ng/ml, P-IkB Ab #2 (Mouse) 75 ng/ml) was 2.895, the “Fold change (TNF-treated /Non-treated)” value (plate #3, IkB Ab #3 (Rabbit) 300 ng/ml, P-IkB Ab #2 (Mouse) 150 ng/ml) was 1.664 and the “Fold change (TNF-treated /Non-treated)” value (plate #3, IkB Ab #3 (Rabbit) 300 ng/ml, P-IkB Ab #2 (Mouse) 300 ng/ml) was 1.602. For the same substance, the “Fold change (TNF-treated /Non-treated)” value (plate #3, IkB Ab #3 (Rabbit) 300 ng/ml, P-IkB Ab #2 (Mouse) 600 ng/ml) was 1.153, the “Fold change (TNF-treated /Non-treated)” value (plate #3, IkB Ab #3 (Rabbit) 300 ng/ml, P-IkB Ab #2 (Mouse) 1200 ng/ml) was 0.9289 and the “Fold change (TNF-treated /Non-treated)” value (plate #3, IkB Ab #3 (Rabbit) 600 ng/ml, P-IkB Ab #2 (Mouse) 75 ng/ml) was 2.035. For the same substance, the “Fold change (TNF-treated /Non-treated)” value (plate #3, IkB Ab #3 (Rabbit) 600 ng/ml, P-IkB Ab #2 (Mouse) 150 ng/ml) was 1.414, the “Fold change (TNF-treated /Non-treated)” value (plate #3, IkB Ab #3 (Rabbit) 600 ng/ml, P-IkB Ab #2 (Mouse) 300 ng/ml) was 1.541 and the “Fold change (TNF-treated /Non-treated)” value (plate #3, IkB Ab #3 (Rabbit) 600 ng/ml, P-IkB Ab #2 (Mouse) 600 ng/ml) was 1.301. For the same substance, the “Fold change (TNF-treated /Non-treated)” value (plate #3, IkB Ab #3 (Rabbit) 600 ng/ml, P-IkB Ab #2 (Mouse) 1200 ng/ml) was 1.1557, the “Fold change (TNF-treated /Non-treated)” value (plate #3, IkB Ab #3 (Rabbit) 1200 ng/ml, P-IkB Ab #2 (Mouse) 75 ng/ml) was 1.581 and the “Fold change (TNF-treated /Non-treated)” value (plate #3, IkB Ab #3 (Rabbit) 1200 ng/ml, P-IkB Ab #2 (Mouse) 150 ng/ml) was 1.544. The “Fold change (TNF-treated /Non-treated)” value (plate #3, IkB Ab #3 (Rabbit) 1200 ng/ml, P-IkB Ab #2 (Mouse) 300 ng/ml) was 1.173, the “Fold change (TNF-treated /Non-treated)” value (plate #3, IkB Ab #3 (Rabbit) 1200 ng/ml, P-IkB Ab #2 (Mouse) 600 ng/ml) was 1.469 and the “Fold change (TNF-treated /Non-treated)” value (plate #3, IkB Ab #3 (Rabbit) 1200 ng/ml, P-IkB Ab #2 (Mouse) 1200 ng/ml) was 1.2818.
